Test results: ChEMBL document CHEMBL4219165, “Discovery of a novel allosteric inhibitor scaffold for polyadenosine-diphosphate-ribose polymerase 14 (PARP14) macrodomain 2” (Bioorg Med Chem, 2018)

Target: Protein mono-ADP-ribosyltransferase PARP14 (Homo sapiens, UniProt Q460N5)
Experiment: Displacement of ARTK(Bio)QTARK(Aoa-RADP)S from His6-tagged PARP14 MD2 (A994 to N1191 residues) (unknown origin) expressed in bacterial expression system after 30 mins by AlphaScreen assay

Sequence of Protein mono-ADP-ribosyltransferase PARP14 (Q460N5 whole entry, the tested form may be a part): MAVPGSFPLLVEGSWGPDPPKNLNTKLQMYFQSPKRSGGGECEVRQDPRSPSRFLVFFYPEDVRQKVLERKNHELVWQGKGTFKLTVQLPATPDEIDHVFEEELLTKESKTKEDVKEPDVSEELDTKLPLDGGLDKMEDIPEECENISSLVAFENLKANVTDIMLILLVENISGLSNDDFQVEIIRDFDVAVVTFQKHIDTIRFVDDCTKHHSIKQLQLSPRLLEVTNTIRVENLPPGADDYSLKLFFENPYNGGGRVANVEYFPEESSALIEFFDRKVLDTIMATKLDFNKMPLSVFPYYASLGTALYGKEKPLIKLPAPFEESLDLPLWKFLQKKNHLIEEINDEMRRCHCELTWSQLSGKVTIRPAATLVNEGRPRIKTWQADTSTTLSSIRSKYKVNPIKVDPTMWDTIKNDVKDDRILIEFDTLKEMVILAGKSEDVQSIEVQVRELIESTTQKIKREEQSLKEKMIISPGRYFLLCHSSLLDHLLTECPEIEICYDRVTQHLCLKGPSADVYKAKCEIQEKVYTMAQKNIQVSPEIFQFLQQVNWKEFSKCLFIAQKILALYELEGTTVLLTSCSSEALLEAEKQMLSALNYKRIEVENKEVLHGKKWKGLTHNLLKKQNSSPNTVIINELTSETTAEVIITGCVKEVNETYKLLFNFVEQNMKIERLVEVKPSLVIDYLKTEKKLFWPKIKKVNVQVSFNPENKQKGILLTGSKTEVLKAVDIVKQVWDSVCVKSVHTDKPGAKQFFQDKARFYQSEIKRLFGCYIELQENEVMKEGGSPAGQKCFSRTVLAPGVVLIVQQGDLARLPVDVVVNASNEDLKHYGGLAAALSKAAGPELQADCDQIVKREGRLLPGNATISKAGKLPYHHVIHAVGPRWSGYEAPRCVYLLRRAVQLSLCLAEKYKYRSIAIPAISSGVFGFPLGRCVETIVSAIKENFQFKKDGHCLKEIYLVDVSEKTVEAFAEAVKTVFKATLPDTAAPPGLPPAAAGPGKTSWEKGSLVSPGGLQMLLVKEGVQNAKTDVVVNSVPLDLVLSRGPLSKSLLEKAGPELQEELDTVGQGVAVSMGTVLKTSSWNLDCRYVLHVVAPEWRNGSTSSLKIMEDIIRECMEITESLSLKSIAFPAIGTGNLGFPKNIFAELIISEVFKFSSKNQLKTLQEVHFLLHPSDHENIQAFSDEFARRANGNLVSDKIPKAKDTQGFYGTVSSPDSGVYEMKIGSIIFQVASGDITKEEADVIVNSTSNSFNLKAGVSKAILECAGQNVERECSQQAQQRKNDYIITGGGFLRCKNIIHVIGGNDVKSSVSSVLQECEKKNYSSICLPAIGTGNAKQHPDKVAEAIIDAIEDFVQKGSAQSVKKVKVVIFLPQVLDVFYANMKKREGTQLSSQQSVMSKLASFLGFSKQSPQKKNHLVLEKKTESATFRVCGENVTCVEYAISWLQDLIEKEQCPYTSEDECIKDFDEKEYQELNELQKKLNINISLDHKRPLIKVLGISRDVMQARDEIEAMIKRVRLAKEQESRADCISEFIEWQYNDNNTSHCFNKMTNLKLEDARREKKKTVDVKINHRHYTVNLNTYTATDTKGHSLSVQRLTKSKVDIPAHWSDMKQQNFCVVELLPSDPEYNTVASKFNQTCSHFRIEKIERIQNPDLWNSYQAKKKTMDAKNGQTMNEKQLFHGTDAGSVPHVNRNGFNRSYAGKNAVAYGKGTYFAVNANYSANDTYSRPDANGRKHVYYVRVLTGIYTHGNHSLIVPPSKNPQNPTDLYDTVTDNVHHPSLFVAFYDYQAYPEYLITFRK

| SMILES | IC50 [µM] |
| --- | --- |
| COc1ccc2[nH]c3c(-c4ccccc4NC(C)=O)cccc3c2c1 | > 50 |
| CC(=O)Nc1ccccc1-c1cccc2c(C(C)C)c[nH]c12 | 18 |
| CC(=O)Nc1ccccc1-c1cccc2c3c([nH]c12)CCNC3 | > 50 |
| CC(Nc1ccccc1-c1cccc2c1[nH]c1ccccc12)C(F)(F)F (racemic) | > 50 |
